Like-named read-outs stand apart in the source and are kept apart here.
How the values were obtained:
Assay type in all cases: cell-based
[1] = system: Moloney-murine leukemia virus; experiment: Antivirus effect on Moloney-murine leukemia virus in SC-1 cells (method of Rowe et al), Table 1
From the text: (§1) The antivirus effect of the compound of general formula [II']of the invention was ascertained according to the test method by Rowe et al (J. W. Virology 1970, 42, 1136).
(§2) Virus: Moloney-murine leukemia virus.

Rous sarcoma virus (RSV) = experiment: Effect on Rous sarcoma virus (RSV): inhibition of transformation of chick embryo fibroblast, Table 2; settings: 4TO7, RSV infected about 30 minutes, judged under microscope after 4 to 7 days, concentration at which transformation was inhibited, read-out: Antivirus effect (on RSV), Concentration
Description: EXAMPLE 2. EFFECT ON ROUS SARCOMA VIRUS (RSV) Employing cultured cells of the first generation (chick embryo fibroblast),RSV was infected for about 30 minutes. To this were added the samples diluted stepwise, and, after 4 to 7 days, which stage the transformation of cells due to RSV infection was inhibited at was judged under microscope.

[2] = system: HIV (human immunodeficiency virus); experiment: Effect on HIV: inhibition of transformation of MT-4 cells due to HIV infection, Table 3; settings: Human immunodeficiency virus 1, MT4, 72 h, HIV infected 1 hour at 37° C, judged under microscope after 3 days, concentration at which transformation was inhibited, read-out: Antivirus effect (on HIV), Concentration
Description: EFFECT ON HIV (HUMAN IMMUNODEFICIENCY VIRUS)
(§3) Employing MT-4 cells, HIV was infected for 1 hour at 37° C. To this were added the samples diluted stepwise, and, after 3 days, which stage the transformation of cells due to HIV infection was inhibited at was judged under microscope.

[3] = system: Moloney-murine leukemia virus, RSV, HIV; experiment: Antivirus effect, summary of Table 1 through 3; settings: as shown in Table 1 through 3
Description: as §1, §2
Employing cultured cells of the first generation (chick embryo fibroblast),RSV was infected for about 30 minutes. To this were added the samples diluted stepwise, and, after 4 to 7 days, which stage the transformation of cells due to RSV infection was inhibited at was judged under microscope.
as §3

[4] = Moloney-murine leukemia virus, SC-1 cells, read-out: ED50 (the source's name)

Compound	EC50 ([1]; SC-1, read-out: ED50) [µM]	EC50 [1, 4] [µM]	minimal effective concentration (Rous sarcoma virus (RSV)) [µg/mL]	minimal effective concentration [2] [µg/mL]	antivirus effect compared with DDC [3]
Cc1cn([C@H]2C[C@H](N=[N+]=[N-])[C@@H](CO)O2)c(=O)[nH]c1=O [AZT, 3Azido-3deoxy-thymidine]	0.02	–	–	–	–
O=c1[nH]c(=S)ccn1[C@H]1CC[C@@H](CO)O1 [Compound of invention, 2',3'-dideoxy-4-thio-uridine]	–	3.7	5 to 10	10	excellent antivirus effect similar to that of DDC
Nc1ccn([C@H]2CC[C@@H](CO)O2)c(=O)n1 [DDC, 2',3Dideoxy-cytidine]	–	4	0.5 to 1	1	–

— patent publication US4954485A, “2',3'-dideoxy-4-thio-uridine derivatives, process for their preparation and antivirus agents using them” (priority 1987, dated 1990)
